Source: patent EP4755386A1, “SKIN PERMEATION PROMOTER AND SKIN PERMEATION PROMOTION METHOD” (Toyo Sugar Refining Co., Ltd., priority 2023, dated 2025)

Details: pH 7.4
Procedure: As a bioactive substance, flavone (manufactured by Tokyo Chemical Industry Co., Ltd., NO. H0721) was used.
Any substance in the substance group A and a bioactive substance were added to 10 mL of distilled water and mixed to prepare a solution (or suspension), which was used as a test liquid. The substance in the substance group A was added in an amount such that the concentration in the test liquid was 10 mg/mL. The bioactive substance was added in an amount such that the concentration in the test liquid was 250 µg/mL. As a control, a test liquid (flavone only) to which a substance in the substance group A was not added was also prepared.
A receptor part of a Franz-type vertical diffusion cell was filled with a phosphate buffer (pH 7.4) containing 0.5% sodium taurocholate, and a Strat-M membrane for a transdermal diffusion test (manufactured by Merck) was attached as a permeable membrane. After 400 µL of the test liquid was dropped on the donor side, a receptor liquid was sampled over time. The amount of the bioactive substance in the sampled receptor liquid was quantified by high performance liquid chromatography. The experiment was performed with N = 1.

C[C@@H]1O[C@@H](O[C@H]2[C@H](Oc3cc(O)c4c(c3)O[C@H](c3ccc(O)cc3)CC4=O)O[C@H](CO)[C@@H](O)[C@@H]2O)[C@H](O)[C@H](O)[C@H]1O [naringin, Naringin]
skin permeation amount of flavone: hardly changed
